Among the test systems are RXF-631 renal; SNB-78 CNS; HOP-18 NSCLC; DLD-1 colon; LXFL 529 NSCLC; KM20L2 colon; M19-MEL melanoma; DMS 273 small cell lung; XF 498 CNS; DMS 114 small cell lung.
What all share (assay): inhibition of tumour cell growth, NCI panel, 48 h

Values joined by “and” are separate entries in the source; they are usually repeats but may differ in a detail not shown here. Identical values can stand only once.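 A five-concentration, 48-hour dose response in 96-well plates underlies each endpoint, interpolated linearly between surrounding concentrations. The concentration for 50% growth inhibition is given as GI50. TGI: total growth inhibition.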 Where a SMILES comes first, the peptide text is derived from it. [ ]: non-standard residue; d: D form. The star is where a group is joined. ξ: configuration not given here. NMeF = CN[CH](Cc1ccccc1)C(=O)O; ξNMeF = CNC(Cc1ccccc1)C(=O)O; NMeV = CN[CH](C(=O)O)C(C)C; Boc = CC(C)(C)OC(=O)*; OBn = c1ccc(CO*)cc1

As to `CN(c1ccccc1)c1cc2ccccc2nn1`, the TGI in the experiment on RXF-631 renal, with SNB-78 CNS, in the experiment with HOP-18 NSCLC, in the experiment on DLD-1 colon, in the experiment with LXFL 529 NSCLC and with KM20L2 colon was > 100 µM each time. Moreover, the TGI with M19-MEL melanoma, with DMS 273 small cell lung, with XF 498 CNS and in the experiment on DMS 114 small cell lung was > 100 µM in each case.
Turning to `CN(C)[C@@H]1C(=O)C(C(=O)NCNc2nc3n[nH]nc3c(=O)[nH]2)=C(O)[C@@]2(O)C(=O)C3=C(O)c4c(O)cccc4[C@@](C)(O)[C@H]3C[C@@H]12`, the TGI in the experiment on RXF-631 renal is > 47.5 µM; with SNB-78 CNS it was > 100 µM; in the experiment on HOP-18 NSCLC, > 100 µM; in the experiment on DLD-1 colon, > 77.8 µM; in the experiment on LXFL 529 NSCLC it was > 100 µM; with KM20L2 colon it was > 68.9 µM. Further, the TGI in the experiment with M19-MEL melanoma is 15 µM; in the experiment on DMS 273 small cell lung, > 100 µM; in the experiment with XF 498 CNS, > 26.9 µM; with DMS 114 small cell lung, 13.8 µM.
Turning to `CCN(CC)C(=O)CCn1cc(F)c(=O)[nH]c1=O`, the TGI in the experiment with SNB-78 CNS, with LXFL 529 NSCLC, with KM20L2 colon, with M19-MEL melanoma, in the experiment with DMS 273 small cell lung and in the experiment with XF 498 CNS was > 100 µM in each case. Also, the TGI in the experiment on DMS 114 small cell lung is > 100 µM.
Consider `COc1cccc(NC(=O)CSc2nnc(Cc3ccccc3)o2)c1`, for which the TGI in the experiment with SNB-78 CNS, in the experiment with HOP-18 NSCLC, in the experiment with DLD-1 colon, in the experiment on LXFL 529 NSCLC, with KM20L2 colon and with M19-MEL melanoma was > 100 µM throughout. Further, the TGI in the experiment on DMS 273 small cell lung and with DMS 114 small cell lung was > 100 µM throughout.
With `CC(C)C(NC(=O)OC(C)(C)C)C(=O)N(C)C(Cc1ccccc1)C(=O)N(C)C(C(=O)OCc1ccccc1)C(C)C` (stereo not drawn) (Boc-Val-[NMeF]-[NMeV]-OBn; configuration not given here), the GI50 with LXFL 529 NSCLC was 14.1 µM and 33.2 µM; in the experiment on KM20L2 colon it was > 100 µM and 49.3 µM; in the experiment on M19-MEL melanoma, 87.4 µM and 42.2 µM; in the experiment on XF 498 CNS it was 3.54 µM and 28.6 µM. The TGI in the experiment with LXFL 529 NSCLC was > 100 µM; with KM20L2 colon, > 100 µM; in the experiment with M19-MEL melanoma, > 100 µM; with DMS 273 small cell lung, > 100 µM; with XF 498 CNS, 9.63 µM and 74.8 µM; in the experiment with DMS 114 small cell lung it was > 100 µM.
Regarding `CNC(=O)C(C)Oc1ccc(OCC2CCCCC2)cc1` (stereo not drawn), the TGI with SNB-78 CNS, in the experiment with HOP-18 NSCLC, in the experiment with DLD-1 colon, with LXFL 529 NSCLC, in the experiment on M19-MEL melanoma and with DMS 273 small cell lung was > 100 µM in each case. Besides, the TGI with DMS 114 small cell lung was > 100 µM.
For `Nc1nc(SCC(=O)c2ccccc2)c2[nH]cnc2n1`, the TGI in the experiment with HOP-18 NSCLC, in the experiment on DLD-1 colon, in the experiment on KM20L2 colon, in the experiment with M19-MEL melanoma, in the experiment on DMS 273 small cell lung and with XF 498 CNS was > 100 µM throughout. Further, the TGI in the experiment on DMS 114 small cell lung is > 100 µM.
`CC(=O)[O-].CC(=O)[O-].O=C(N/N=C/c1cc(Cl)cc(Cl)c1[OH2+])c1ccncc1.[Mn+2]` returned a TGI in the experiment on KM20L2 colon of 16 µM.
Take `Cc1ccc(Nc2cccc3c2C(=O)c2cccc(Nc4ccc(C)cc4S(=O)(=O)O)c2C3=O)c(S(=O)(=O)O)c1`: the TGI in the experiment with RXF-631 renal, in the experiment with SNB-78 CNS, in the experiment on HOP-18 NSCLC, in the experiment with DLD-1 colon, with LXFL 529 NSCLC and in the experiment with KM20L2 colon was > 100 µM throughout. In addition, the TGI with M19-MEL melanoma, in the experiment on DMS 273 small cell lung and in the experiment with DMS 114 small cell lung was > 100 µM each time.
`CC(C)[C@@H](C(=O)N(C)[C@H](C(=O)N1CCC[C@H]1C(=O)OCc1ccccc1)C(C)C)N(C)C(=O)C(Cc1ccccc1)N(C)C(=O)[C@H](NC(=O)OC(C)(C)C)C(C)C` (stereo partly drawn) (Boc-[dV][ξNMeF][NMeV][NMeV]P-OBn): the TGI with SNB-78 CNS is > 31.6 µM; in the experiment on HOP-18 NSCLC, > 100 µM; with DLD-1 colon, > 31.6 µM; with LXFL 529 NSCLC it was > 100 µM; in the experiment with KM20L2 colon, > 31.6 µM; in the experiment on M19-MEL melanoma, > 31.6 µM. Moreover, the TGI was > 31.6 µM in the experiment on DMS 273 small cell lung, 27.9 µM in the experiment with XF 498 CNS and > 31.6 µM in the experiment with DMS 114 small cell lung.

The values above are taken from PubChem BioAssay (NCI).
